Literature values, collected in patent publication US20150147356A1, “ANTIPYRETICS TO ENHANCE TOLERABILITY OF VESICLE-BASED VACCINES” (priority 2011, published 2015).
Values joined by “and” are separate entries in the source; they are usually repeats but may differ in a detail not shown here. Identical values can stand only once.

What was measured:
[1] = in vivo
[2] = in vivo; remark: listed apart in the source

SMILES | Therapeutic blood level | duration of action [1] | half-life [2]
CC(C)Cc1ccc(C(C)C(=O)O)cc1 (stereo not shown) [Ibuprofen, ibuprofen] | 10-50 μg/ml and 49-243 μM | about 4 hours | 
CC(=O)Nc1ccc(O)cc1 [paracetamol, paracetamol (acetaminophen)] | 10-30 μg/ml and 66-199 μM |  | about 3 hours
